Measurements published in publication PMC5449454, “Anti-Double-Stranded DNA IgG Participates in Renal Fibrosis through Suppressing the Suppressor of Cytokine Signaling 1 Signals” (Frontiers in Immunology, 2017).

What was measured:
[1] = system: proximal tubular epithelial cells; experiment: Cell viability (PrestoBlue), proximal tubular epithelial cells; format: cell-based, murine; settings: D-form ALW 1 µg/ml, 2 days
Procedure: (§1) By using a HiTrap purification kit (GE Healthcare, Port Washington, NY, USA) ([8]), anti-dsDNA IgG was purified from the culture supernatants of murine WJ31 hydridoma clone (IgG2a; Jieqing Biotech). Control murine IgG (IgG2a; Jieqing Biotech) was verified by enzyme-linked immunosorbent assay (ELISA) to determine that there was no binding to DNA antigen (data not shown). Cells were starved routinely before the 2-day stimulation of anti-dsDNA IgG or control IgG (2 µg/ml). In some experiments, mesangial cells were stimulated with anti-dsDNA IgG (2 µg/ml) that was premixed with D-form (ALWPPNLHAWVP) or scrambled (PLPHNPWVLAAW) ALW peptide (1 µg/ml). The cell viability of three types of cells was measured using PrestoBlue viability reagent (Life Technologies, Carlsbad, CA, USA).
(§2) Mesangial Glomerular Tubular cells endothelial epithelial
(§3) Supplementary Figure S7. Cell viability assays of kidney cells. (A) Murine cells were cultured in vitro, and received control or anti-dsDNA IgG stimulation (2 µg/ml, 2 days). (B) Similarly, these cells were also stimulated with scrambled or D-form ALW peptide (1 µg/ml, 2 days). The cell viability was measured using PrestoBlue viability reagent. Data were from three independent experiments. Data points and error bars […]
(§4) (also on this page, place not known: µ g/ml,2 µ g/ml,2 Cell viability (%) Cell viability (%))

[2] = system: anti-dsDNA IgG binding to mesangial cells; experiment: Inhibition cell surface ELISA, anti-dsDNA IgG binding to mesangial cells; format: cell-based, murine; settings: anti-dsDNA IgG premixed with D-form or scrambled ALW peptide; three independent experiments
Procedure: Common ELISAs (for binding to dsDNA or peptide) and inhibition ELISAs were performed as previously described ([8], [35]). Briefly, the KIR ELISA was carried out by adding biotinylated KIR peptide (DTHFRTFRSHSDYRRI, 5 µg/ml) to streptavidin-coated 96-well plates. For inhibition with KIR (or ALW) peptide, anti-dsDNA IgG (2 µg/ml) was pre-incubated with serially diluted peptide (from 0.04 to 80 µg/ml), and then transferred to antigen-coated 96-well plates. Alkaline phosphatase-conjugated goat anti-mouse IgG (2 µg/ml; Southern Biotech) was used as secondary antibody. Similarly, for inhibition with anti-dsDNA IgG, the FITC-labeled JAK2 loop peptide (LPQDKEYYKVKEP, 0.2 µg/ml) was pre-incubated with serially diluted anti-dsDNA IgG (from 0.02 to 20 µg/ml) before transfer to KIR-coated plates, which were detected for fluorescein intensity under a Perkin Elmer Reader (Winpact Scientific, Irvine, CA, USA). Cell surface ELISA was performed by growing mesangial cells in 96-well plates ([8], [35]). All peptides were synthesized by Sangon Biotech Company (Shanghai, China).

anti-dsDNA IgG = experiment: MALDI-TOF MS, catalysis of peptide by anti-dsDNA IgG; design: species or system murine; settings: peptide 2 µg/ml with IgG (molar ratio = 1:5), 37°C, 30 min, triplicate, versus L-form ALW
Procedure: Matrix-assisted laser desorption/ionization–time of flight mass spectrometry was performed for identifying the sequences of peptide fragments. As described previously ([36]), an ABI 4800 Analyzer (AB Science, Foster City, CA, USA) was used for such analysis. The ALW (L-form or D-form) and KIR peptides (2 µg/ml) were mixed with anti-dsDNA IgG or control IgG (molar ratio = 1:5), respectively. The mixtures were incubated at 37°C for 30 min. Then, these samples were diluted in distilled water (1:100) and then mixed with the α-cyano-4-hydroxycinnamic acid matrix at a ratio of 1:1. Samples in triplicate were then loaded to the MALDI target. Mass spectrum was produced on 80 individual spectra of each spot.

[3] = system: SOCS1, JAK2 and STAT1 in kidneys of SCID mice; experiment: Renal SOCS1/JAK2/STAT1 proteins by Western blotting, SCID mice; format: in vivo; settings: i.v., n = 5, versus anti-dsDNA IgG alone
Source text: Renal biopsies were obtained from patients with LN (n = 7), who had serum positivity of anti-dsDNA IgG (Table S1 in Supplementary Material). The diagnosis of LN was made based on the histological features of renal biopsies. For normal human controls, sera and non-lesional tissues were taken from patients (n = 5) who underwent surgical nephrectomy due to renal cell carcinoma or renal rupture (Table S1 in Supplementary Material). There was no statistical difference in term of age between the LN patients and the controls (p > 0.05). […] The MRL/lpr and MRL/MpJ mice (female, 12 or 24 weeks old, n = 5 each group) as well as SCID mice (female, 8 weeks old, n = 5 each group) were bred in the animal facility of Xi’an Jiaotong University Health Science Center. Urine, sera, and renal tissues were harvested from MRL/lpr and MRL/MpJ mice. Proteinuria was quantitated by the Coomassie brilliant blue method ([32]). […]
Fresh tissues and cell cultures were extracted for lysates with the addition of protease inhibitor cocktail (Thermo Scientific, Waltham, MA, USA). […] The band intensities were quantitated by ImageJ 1.61u software (National Institutes of Health, Bethesda, MD, USA) and normalized to β-actin values accordingly. The intensities of blank groups were set as 1 (baseline), and the relative intensities were calculated in other groups.

[4] = system: glomerular endothelial cells; experiment: Cell viability (PrestoBlue), glomerular endothelial cells; format: cell-based, murine; settings: D-form ALW 1 µg/ml, 2 days
Procedure: as §1, §2, §3, §4

With “ALWPPNLHAWVP [D-form ALW, ALW peptide with two terminal residues A and P replaced with D-form ones]” the cell viability [1] was “no changes”, the “inhibition of anti-dsDNA IgG binding to mesangial cells” value [2] was “inhibited” and the “resistance to catalysis by anti-dsDNA IgG” value (anti-dsDNA IgG) was “enhanced resistance to catalysis”. For the same sequence, the “renal JAK2 protein expression level, ALW plus anti-dsDNA IgG” value [3] was “remarkable attenuation”, the “renal STAT1 protein expression level, ALW plus anti-dsDNA IgG” value [3] was “remarkable attenuation” and the cell viability [4] was “no changes”.
